Laboratory results published in patent publication US8722023B2, “Depigmenting or brigthening cosmetic composition comprising at least one oxazolin as an active ingredient” (Laboratoires Expanscience, priority 2005, dated 2014).

Legend:
[1] = system: normal human melanocytes in co-culture (NHEM-NHEK; M/K); test: Production of melanin in M/K co-cultures, irradiated or not; type: cell-based; conditions: for quantity of melanin compared to the control (control = 100) / variation of the quantity of melanin compared to the control (value in brackets): 240 hours
Method: (§1) The effect of OX100 was studied on the production of melanin by normal human melanocytes in co-culture (NHEM-NHEK; M/K) irradiated or not. Melanocyte/keratinocyte co-cultures (NHEM-NHEK; M/K) are incubated for 240 hours, in the absence or presence of OX100. The quantity of melanin present in the cells after incubation is measured by spectrophotometry. 1) M/K co-cultures are inoculated in medium free of PMA (phorbol myristate acetate) and are brought to 60-80% confluence for the test. 2) Three identical culture series are prepared in order to measure: • cytotoxicity by a MTT (tetrazolium salt) test and by morphological observation of the cells, • quantity of melanin, • quantity of total proteins (in order to determine the ratio of melanin to total protein). 3) Treatment conditions are as follows: • OX100 at three concentrations: 2×10^−6, 10^−5, 2×10^−5 M. • Kojic acid (reference depigmenting molecule). • IBMX (3-isobutyl-1-methylxanthine, pro-pigmenting reference molecule). Each treatment condition is carried out in triplicate. The co-cultures are incubated for 240 hours in the presence or absence of the compounds above. Irradiation by ultraviolet rays (25 mJ/cm^2 of UVB+300 mJ/cm^2 of UVA) is carried out four times per day for consecutive four days. At the end of the treatment, the cellular monolayers are washed. After cell lysis, the melanin crystals are extracted and solubilized. The melanin is quantified by measurement of the OD (optical density) at 450 nm and by comparison with a range of melanin standards.

[2] = system: Melanocyte/keratinocyte co-cultures (NHEM-NHEK; M/K); test: Viability (MTT test) of M/K co-cultures; type: cell-based, human; conditions: for Viability percentage (MTT test): 240 hours
Method: as §1, with “Melanocyte/keratinocyte” for “The effect of OX100 was studied on the production of melanin by normal human melanocytes in co-culture (NHEM-NHEK; M/K) irradiated or not. Melanocyte/keratinocyte”, “days.” for “days. At the end of the treatment, the cellular monolayers are washed. After cell lysis, the melanin crystals are extracted and solubilized. The melanin is quantified by measurement of the OD (optical density) at 450 nm and by comparison with a range of melanin standards.”

[3] = Assessment of cutaneous acceptability by the volunteers; type: in vivo, human (adult female volunteers); parameters: volunteers reporting no cutaneous manifestations: unit not given here
Description: Assessment of Cutaneous Acceptability by the Volunteers

[4] = system: skin of the hands (spot-free area and pre-identified pigmentation spot); test: Colorimetric measurements (Chromameter) on the hands, treated hand vs. control hand; type: in vivo, human (adult female volunteers); conditions: for Individual typological angle (ITA), treated hand / Lightness variable L*, treated hand: mean ± SEM
Description: Among these volunteers, 14% were North-African in origin and 86% Mediterranean, including 76% of phototype IV and 10% of phototype V. All of these volunteers had lentigo pigmentation spots on the hands and most had them on the face. COLORIMETRIC MEASUREMENTS (Chromameter™): Variance homogeneity and distribution normality were verified in all cases. Measurements are taken on the hands, in an area without pigmentation spots. The results correspond to the means and deviations with respect to the mean-SEM. The time and product effects results with values less than 0.05 are statistically significant. The result corresponding to both the time and product effects gives the value of the probability of the differences Δ (T=6 weeks minus T0) by the Student's t-test in a paired series (bilateral significance test, p<0.05). Measurements are carried out on the hands in an area with pigmentation spots. The results correspond to the means and deviations with respect to the mean-SEM.

[5] = system: lentigo pigmentation spots, skin of hands and face; test: Clinical evaluation of hands and face after six weeks of application; type: in vivo, human (adult female volunteers)
Description: Among these volunteers, 14% were North-African in origin and 86% Mediterranean, including 76% of phototype IV and 10% of phototype V. All of these volunteers had lentigo pigmentation spots on the hands and most had them on the face. The results of the statistically significant variation, after six weeks of application, of some of the criteria evaluated are given in table 6 below: The percentages correspond to variations with respect to the initial evaluations, the p value corresponds to probability p with respect to the initial evaluations (Wilcoxon test, bilateral significance test, p<0.05). For measurements of pigmentation spot intensity, the intensity of the spot is identified beforehand. The results of the statistically significant variation, after six weeks of application, of some of the criteria evaluated are given in table 7 below: The percentages correspond to variations with respect to the initial evaluations, the p value corresponds to probability p with respect to the initial evaluations (Wilcoxon test, bilateral significance test, p<0.05). For measurements of pigmentation spot intensity, the intensity of the spot is identified beforehand.

[6] = Overall assessment of the product's acceptability and effectiveness by the volunteers; type: in vivo, human (adult female volunteers); parameters: unit not given here; conditions: panel of 21 volunteers
Description: Overall Assessment of the Product's Acceptability and Effectiveness by the Volunteers

[7] = area with spots (pre-identified pigmentation spot), T = 0 (before treatment)
[8] = area with spots (pre-identified pigmentation spot), T = 6 weeks
[9] = spot-free area of the hands, T = 0 (before treatment)
[10] = spot-free area of the hands, T = 6 weeks

O=c1cc(CO)occ1O [Kojic acid, reference compound]
quantity of melanin compared to the control (control = 100) ([1]; 15.6 μg/ml, With UV): 83%
variation of the quantity of melanin compared to the control (value in brackets) ([1]; 15.6 μg/ml, With UV): −20%
quantity of melanin compared to the control (control = 100) ([1]; 15.6 μg/ml, Without UV): 74%
variation of the quantity of melanin compared to the control (value in brackets) ([1]; 15.6 μg/ml, Without UV): −35%
Viability percentage (MTT test) ([2]; 0.0156 mg/ml, With UV): 99%
Viability percentage (MTT test) ([2]; 0.0156 mg/ml, Without UV): 102%

CCCCCCCCCCCC1=NC(C)(C)CO1 [OX100, 2-undecyl-4,4-dimethyl-1,3-oxazoline]
dermatological tolerance, conclusion in words ([3]; conclusion of Example 6): dermatologically well-tolerated
volunteers reporting no cutaneous manifestations ([3]; panel of 21 volunteers): Ninety-five
volunteers reporting no ocular manifestations ([3]; panel of 21 volunteers): 100%
Individual typological angle (ITA), treated hand [4, 7]: 5.0 ± 4.5
Lightness variable L*, treated hand [4, 7]: 51.2 ± 1.1
Individual typological angle (ITA), treated hand [4, 8]: 11.0 ± 5.2
Lightness variable L*, treated hand [4, 8]: 52.4 ± 1.2
increase in chromaticity coordinate L* ([4]; area with spots, six weeks of applications, compared to initial values and control hand, p=0.048): +2%
Individual typological angle (ITA), treated hand [4, 9]: 38.5 ± 2.4
Lightness variable L*, treated hand [4, 9]: 58.4 ± 0.7
Individual typological angle (ITA), treated hand [4, 10]: 44.1 ± 2.4
Lightness variable L*, treated hand [4, 10]: 59.2 ± 0.7
increase in ITA ([4]; spot-free area, six weeks of applications, compared to initial values and control hand, p=0.008): +13%
increase in chromaticity coordinate L* ([4]; spot-free area, six weeks of applications, compared to initial values and control hand, p=0.017): +2%
quantity of melanin compared to the control (control = 100) ([1]; 2 × 10^−5 M, With UV): 104%
variation of the quantity of melanin compared to the control (value in brackets) ([1]; 2 × 10^−5 M, With UV): +4%
quantity of melanin compared to the control (control = 100) ([1]; 2 × 10^−5 M, Without UV): 89%
variation of the quantity of melanin compared to the control (value in brackets) ([1]; 2 × 10^−5 M, Without UV): −12%
quantity of melanin compared to the control (control = 100) ([1]; 2 × 10^−6 M, With UV): 100%
variation of the quantity of melanin compared to the control (value in brackets) ([1]; 2 × 10^−6 M, With UV): 0%
quantity of melanin compared to the control (control = 100) ([1]; 2 × 10^−6 M, Without UV): 102%
variation of the quantity of melanin compared to the control (value in brackets) ([1]; 2 × 10^−6 M, Without UV): −1%
quantity of melanin compared to the control (control = 100) ([1]; 10^−5 M, With UV): 99%
variation of the quantity of melanin compared to the control (value in brackets) ([1]; 10^−5 M, With UV): −1%
quantity of melanin compared to the control (control = 100) ([1]; 10^−5 M, Without UV): 104%
variation of the quantity of melanin compared to the control (value in brackets) ([1]; 10^−5 M, Without UV): +4%
effect on melanin in the irradiated study model, in words ([1]; irradiated co-cultures (UVB + UVA)): neutralizes the effect of ultraviolet rays
inhibition of the synthesis of melanin ([1]; non-irradiated co-cultures, 2.10^−5 M, p<0.01): roughly 12%
Viability percentage (MTT test) ([2]; 2 × 10^−5 M, With UV): 105%
Viability percentage (MTT test) ([2]; 2 × 10^−5 M, Without UV): 115%
Viability percentage (MTT test) ([2]; 2 × 10^−6 M, With UV): 97%
Viability percentage (MTT test) ([2]; 2 × 10^−6 M, Without UV): 102%
Viability percentage (MTT test) ([2]; 10^−5 M, With UV): 99%
Viability percentage (MTT test) ([2]; 10^−5 M, Without UV): 108%
toxicity for the M/K co-cultures, in words ([2]; at the concentrations tested): not toxic
COLOR LIGHTNESS, variation with respect to initial evaluation ([5]; face, p = 0.0001 (Wilcoxon)): +22% (p = 0.0001)
INTENSITY OF THE PIGMENTATION SPOT, variation with respect to initial evaluation ([5]; face, p = 0.0196 (Wilcoxon)): −8% (p = 0.0196)
COLOR UNIFORMITY, variation with respect to initial evaluation ([5]; face, p = 0.0455 (Wilcoxon)): +4% (p = 0.0455)
SKIN LIGHTNESS, variation with respect to initial evaluation ([5]; hands, p = 0.0002 (Wilcoxon)): +16% (p = 0.0002)
INTENSITY OF THE PIGMENTATION SPOT, variation with respect to initial evaluation ([5]; hands, p = 0.0143 (Wilcoxon)): −5% (p = 0.0143)
SKIN UNIFORMITY, variation with respect to initial evaluation ([5]; hands, p = 0.0209 (Wilcoxon)): +10% (p = 0.0209)
volunteers reporting somewhat good to good effectiveness as a depigmenting/lightening product [6]: Thirty-eight

CC(C)Cn1c(=O)n(C)c(=O)c2[nH]cnc21 [IBMX, 3-isobutyl-1-methylxanthine, reference compound]
quantity of melanin compared to the control (control = 100) ([1]; 200 μM, With UV): 114%
quantity of melanin compared to the control (control = 100) ([1]; 200 μM, Without UV): 118%
variation of the quantity of melanin compared to the control (value in brackets) ([1]; With UV): +14%
variation of the quantity of melanin compared to the control (value in brackets) ([1]; Without UV): +15%
Viability percentage (MTT test) ([2]; 200 μM, With UV): 111%
Viability percentage (MTT test) ([2]; 200 μM, Without UV): 118%
